Assay results reported in ChEMBL document CHEMBL1201862, “PubChem BioAssay data set” (2004).
Calls of active or inactive are those of the source.

Tests used:
[1] = target: Protein-tyrosine kinase 2-beta (Homo sapiens, UniProt Q14289);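 also: potency of inhibitors of PYK2 kinase phosphorylation of poly-GT substrate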
[2] = target: Cytochrome P450 2C19 (Homo sapiens, UniProt P33261); test: Cytochrome panel assay with activity outcomes. Panel member name: p450-cyp2c19 Compounds with AC50 equal or less than 10 uM are considered active; type: functional; settings: read-out: AC50
Sequence of Cytochrome P450 2C19 (P33261 whole entry): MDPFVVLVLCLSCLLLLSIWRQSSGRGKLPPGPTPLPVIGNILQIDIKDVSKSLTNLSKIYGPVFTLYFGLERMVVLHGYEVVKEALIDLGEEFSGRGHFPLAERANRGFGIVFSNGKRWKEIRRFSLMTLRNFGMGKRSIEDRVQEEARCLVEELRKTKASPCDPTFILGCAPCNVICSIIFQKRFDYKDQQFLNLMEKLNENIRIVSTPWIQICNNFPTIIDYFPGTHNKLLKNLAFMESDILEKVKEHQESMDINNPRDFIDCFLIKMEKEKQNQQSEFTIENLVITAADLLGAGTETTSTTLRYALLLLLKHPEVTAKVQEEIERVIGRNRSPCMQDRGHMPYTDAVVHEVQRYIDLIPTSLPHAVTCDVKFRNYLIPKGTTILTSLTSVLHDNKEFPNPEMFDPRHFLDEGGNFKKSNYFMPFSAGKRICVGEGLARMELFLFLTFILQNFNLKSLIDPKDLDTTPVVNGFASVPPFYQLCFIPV

[3] = target: T1, Cytochrome P450 3A4 (Homo sapiens, UniProt P08684)
T1 sequence (P08684 whole entry): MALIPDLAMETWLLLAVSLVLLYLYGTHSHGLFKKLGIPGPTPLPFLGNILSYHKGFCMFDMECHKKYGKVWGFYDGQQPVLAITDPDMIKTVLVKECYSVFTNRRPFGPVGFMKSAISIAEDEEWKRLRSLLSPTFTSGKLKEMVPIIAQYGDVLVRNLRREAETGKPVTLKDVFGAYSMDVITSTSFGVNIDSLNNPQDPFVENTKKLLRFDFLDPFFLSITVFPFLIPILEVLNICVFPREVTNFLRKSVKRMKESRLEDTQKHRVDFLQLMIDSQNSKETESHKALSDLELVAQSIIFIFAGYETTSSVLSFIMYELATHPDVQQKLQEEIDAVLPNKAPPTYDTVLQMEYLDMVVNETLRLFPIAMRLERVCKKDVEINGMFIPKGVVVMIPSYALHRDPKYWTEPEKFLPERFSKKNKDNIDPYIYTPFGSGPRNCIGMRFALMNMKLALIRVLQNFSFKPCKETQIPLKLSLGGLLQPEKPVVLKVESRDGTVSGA

[4] = target: T1, Cytochrome P450 3A4; settings: Potency
[5] = target: T2, Aminopeptidase N (Plasmodium falciparum FcB1/Columbia, UniProt O96935); test: P. falciparum M1AAP inhibitors, biochemical, fluorogenic H-Leu-NHMec substrate, 1536-well (AID 1445); design: species or system Plasmodium falciparum 3D7, 3D7
T2 sequence (O96935 whole entry): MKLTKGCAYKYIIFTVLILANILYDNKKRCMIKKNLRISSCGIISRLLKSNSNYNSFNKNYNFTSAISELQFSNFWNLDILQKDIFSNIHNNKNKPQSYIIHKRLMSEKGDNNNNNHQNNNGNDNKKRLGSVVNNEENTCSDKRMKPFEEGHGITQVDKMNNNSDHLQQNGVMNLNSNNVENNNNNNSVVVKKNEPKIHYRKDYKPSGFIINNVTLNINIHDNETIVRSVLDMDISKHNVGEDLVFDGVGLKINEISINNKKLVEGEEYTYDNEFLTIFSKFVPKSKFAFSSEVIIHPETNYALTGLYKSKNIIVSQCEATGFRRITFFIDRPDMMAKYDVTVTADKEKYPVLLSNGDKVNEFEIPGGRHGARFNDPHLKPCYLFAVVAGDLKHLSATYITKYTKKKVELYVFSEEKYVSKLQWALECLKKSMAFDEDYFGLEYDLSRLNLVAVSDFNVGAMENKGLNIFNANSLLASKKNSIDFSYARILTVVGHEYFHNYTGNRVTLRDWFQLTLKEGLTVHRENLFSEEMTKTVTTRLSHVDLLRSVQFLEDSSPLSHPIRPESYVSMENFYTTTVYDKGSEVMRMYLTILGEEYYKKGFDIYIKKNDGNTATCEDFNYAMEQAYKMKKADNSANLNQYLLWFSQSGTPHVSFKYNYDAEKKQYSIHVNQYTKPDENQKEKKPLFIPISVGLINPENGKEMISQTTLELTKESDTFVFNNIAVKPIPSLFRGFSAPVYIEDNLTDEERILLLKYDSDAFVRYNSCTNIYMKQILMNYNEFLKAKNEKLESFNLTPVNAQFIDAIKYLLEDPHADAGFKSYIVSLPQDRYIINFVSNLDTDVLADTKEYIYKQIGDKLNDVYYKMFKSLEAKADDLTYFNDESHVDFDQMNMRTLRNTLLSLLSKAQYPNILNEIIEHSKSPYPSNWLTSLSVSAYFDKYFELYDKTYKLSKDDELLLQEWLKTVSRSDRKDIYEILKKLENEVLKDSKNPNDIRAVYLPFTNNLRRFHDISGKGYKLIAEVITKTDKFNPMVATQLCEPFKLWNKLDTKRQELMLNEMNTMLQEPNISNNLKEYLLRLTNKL

[6] = target: Prothrombin (Homo sapiens, UniProt P00734); test: Thrombin 1536 HTS Dose Response Confirmation. [Related pubchem assays: 1046 (Thrombin 1536 HTS; hits were confirmed in this assay)]; type: functional
[7] = cytotoxicity in HEK-293T cells, dose response, cytotoxicity control for BCR NF-kB inhibitor project, luminescence, B-cell screen hits (AID 489021); type: functional, cell-based;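 also: HEK-293T cells carrying an NF-kB luciferase reporter; cells exposed to compound for about 14 hours before viability readout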
[8] = target: T3, Lysosomal acid glucosylceramidase (Homo sapiens, UniProt P04062); test: Dose response cell-based high throughput screening assay to identify enhancers of beta-glucosidase activity. [Related pubchem assays: 784 ]; type: functional
T3 sequence (P04062 whole entry): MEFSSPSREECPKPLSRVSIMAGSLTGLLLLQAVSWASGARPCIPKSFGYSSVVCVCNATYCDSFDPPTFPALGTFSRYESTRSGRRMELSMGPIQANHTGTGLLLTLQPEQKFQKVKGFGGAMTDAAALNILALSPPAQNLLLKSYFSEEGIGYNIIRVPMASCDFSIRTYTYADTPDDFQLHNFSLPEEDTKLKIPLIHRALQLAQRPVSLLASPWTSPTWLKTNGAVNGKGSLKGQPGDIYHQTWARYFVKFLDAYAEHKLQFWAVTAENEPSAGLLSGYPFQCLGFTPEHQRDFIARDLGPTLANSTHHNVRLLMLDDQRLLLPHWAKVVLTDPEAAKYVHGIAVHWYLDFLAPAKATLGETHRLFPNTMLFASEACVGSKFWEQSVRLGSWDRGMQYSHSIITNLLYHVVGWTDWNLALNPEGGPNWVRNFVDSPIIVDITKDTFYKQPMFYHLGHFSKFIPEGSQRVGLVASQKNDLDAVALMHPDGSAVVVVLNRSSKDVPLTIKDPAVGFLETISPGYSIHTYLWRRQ

[9] = THP-1 cell cytotoxicity, dose response, cytotoxicity control for non-replicating M. tuberculosis project (AID 489025); type: functional
[10] = cells; type: functional
[11] = target: Heat shock protein HSP 90-alpha (Homo sapiens, UniProt P07900); test: Luminescence-based dose response biochemical high throughput screening assay for inhibitors of the Heat Shock Protein 90 (HSP90). [Related pubchem assays: 1831 (Summary AID.), 1846 (Confirmation screen.), 1789 (Primary screen.)]

Sequence of Protein-tyrosine kinase 2-beta (Q14289 whole entry): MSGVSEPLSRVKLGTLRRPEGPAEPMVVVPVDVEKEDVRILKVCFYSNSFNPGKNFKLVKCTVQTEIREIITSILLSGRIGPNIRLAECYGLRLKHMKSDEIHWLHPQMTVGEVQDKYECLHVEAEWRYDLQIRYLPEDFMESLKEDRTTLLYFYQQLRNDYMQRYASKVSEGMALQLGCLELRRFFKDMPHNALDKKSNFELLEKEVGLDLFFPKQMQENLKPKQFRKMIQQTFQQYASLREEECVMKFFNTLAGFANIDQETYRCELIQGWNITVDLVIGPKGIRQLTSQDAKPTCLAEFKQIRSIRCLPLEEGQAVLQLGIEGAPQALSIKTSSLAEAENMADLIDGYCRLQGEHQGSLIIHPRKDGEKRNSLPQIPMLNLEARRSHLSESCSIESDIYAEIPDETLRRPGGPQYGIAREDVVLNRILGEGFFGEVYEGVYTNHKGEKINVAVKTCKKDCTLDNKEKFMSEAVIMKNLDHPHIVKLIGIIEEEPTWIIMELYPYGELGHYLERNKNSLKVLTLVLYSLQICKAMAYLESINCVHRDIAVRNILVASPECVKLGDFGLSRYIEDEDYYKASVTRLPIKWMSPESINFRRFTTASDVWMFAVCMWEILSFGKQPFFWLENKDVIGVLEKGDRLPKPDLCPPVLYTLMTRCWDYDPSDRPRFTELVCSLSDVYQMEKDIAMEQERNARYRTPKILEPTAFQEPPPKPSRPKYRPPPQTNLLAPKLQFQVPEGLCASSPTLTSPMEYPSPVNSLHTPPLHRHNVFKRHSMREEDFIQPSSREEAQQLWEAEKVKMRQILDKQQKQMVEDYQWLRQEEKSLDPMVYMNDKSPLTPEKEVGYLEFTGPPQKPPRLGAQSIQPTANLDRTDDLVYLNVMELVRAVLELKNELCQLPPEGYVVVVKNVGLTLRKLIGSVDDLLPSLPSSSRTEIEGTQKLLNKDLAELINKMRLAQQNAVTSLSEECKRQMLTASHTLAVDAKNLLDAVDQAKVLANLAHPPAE

SMILES: Cc1n[nH]c(C)c1N=Nc1cc(Cl)ccc1Cl
- IC50 [1]: > 69.5 µM (not active)
- AC50 [2]: 1.12 µM (inconclusive)
- AC50 [3]: 17.8 µM (inconclusive)

SMILES: CCC(=O)OCC(=O)C1(OC(=O)CC)C(C)CC2C3CCC4=CC(=O)C=CC4(C)C3(Cl)C(O)CC21C (stereo unspecified)
- AC50 [4]: 12.6 µM (inconclusive)

SMILES: CCCCc1cc(=O)oc2c(CN(C)C)c(O)c(Cl)cc12
- IC50 [5]: 27.3 µM (active)

SMILES: Cc1cc(=O)oc2cc(OC(=O)c3ccco3)ccc12
- IC50 [6]: 0.949 µM (active)

SMILES: CCCn1c2c(c(O)c(C(=O)Nc3nccs3)c1=O)CCCC2
- IC50 [6]: > 50 µM (not active)

SMILES: Cn1c(=O)cc(OCCCC(=O)N2CCCCC2)c2ccccc21
- IC50 [7]: > 80 µM (inactive)

SMILES: O=C(CSc1nc(-c2ccccc2)nn1C(=O)c1ccccc1)Nc1cccc([N+](=O)[O-])c1
- IC50 [6]: 1.39 µM (active)

SMILES: Cc1cc(NC(=O)CSc2nc3ccccc3[nH]2)no1
- EC50 [8]: > 50 µM (not active)

SMILES: O=C(OCC(=O)N1CCN(c2ccccc2)CC1)c1cnc(Cl)c(Cl)c1
- CC50 [9]: 34.2 µM (active)
- IC50 [10]: 3.69 µM (active)

SMILES: CCN(CC)S(=O)(=O)c1ccc(NC(=O)CN(c2cccc(F)c2)S(C)(=O)=O)cc1
- EC50 [8]: > 50 µM (not active)

SMILES: CC(C)C[C@@H](N)c1nnc(SCC(=O)c2ccc(Cl)cc2)o1
- IC50 [7]: > 80 µM (inactive)

SMILES: Cc1nc(C)c(-c2csc(NCc3ccco3)n2)s1
- EC50 [8]: > 50 µM (not active)

SMILES: CC(C)(C)c1ccc(C(=O)c2c[nH]c(C(=O)O)c2)cc1
- IC50 [11]: 0.469 µM (active)
